Measured values: patent publication US8426385B2 (Hainan Hdeton Science and Technology Co. Ltd., priority 2006, dated 2013)
In brackets after ≈: the same amount, converted by molar mass.

Columns and labels:
[1] = Inclusion solubilization test (paclitaxel solubility in cyclodextrin solution); format: physicochemical; conditions: 25° C.; for Paclitaxel solubility in cyclodextrin solution: 72 h
Excerpt: A standard curve was plotted by A and concentration C (mg/ml) (A=393.2 C−0.0123; r=0.9998).

[2] = Solid inclusion stability, 5-day acceleration test (HPLC content); format: physicochemical
Protocol: (§1) HPLC chromatographic conditions: chromatographic column ODS C18 (250 mm×4.6 mm); mobile phase: methanol:water:acetonitrile (20:30:50); flow rate: 1.0 ml/min; detection wavelength: 228 nm; detection time: 30.00 min; detection sensitivity: 1.0000 AUFS.
Samples were put in a sealed transparent container and then placed in an illumination box equipped with fluorescent light of 4500±500 LX illumination intensity for 5 days. Sampling inspection analysis was conducted, and the test results were compared with the samples of 0 day.
Samples were placed in a clean sealed container at temperature of 60° C. for 5 days. Sampling inspection analysis was conducted, and the test results were compared with the samples of 0 day.
Samples were placed in a sealed container of constant humidity at temperature of 25° C. and relative humidity of 90±5% for 5 days. Sampling inspection analysis was conducted, and the test results were compared with the samples of 0 day.

[3] = Paclitaxel stability test in solution (HPLC assay); format: physicochemical; conditions: mobile phase pH=6.50, diluted 100 times
Protocol: as §1
The sample solutions had stable chemical properties and the content was basically unchanged.

S180 cells = test: In vivo anti-tumor effect, S180 solid tumor model; conditions: Kunming mice, intraperitoneal, 7 days, 5 mg/kg dose (printed for the inclusion)
[4] = Animal body weight in the S180 anti-tumor test; conditions: S180 solid tumor, Kunming mice, intraperitoneal, 7 days
[5] = Determination of inclusion stability constant Ka by UV spectrophotometry; format: physicochemical; conditions: 234 nm
Protocol: The inclusion stability constant Ka is used to determine the degree of inclusion and UV spectrophotometry is one of common methods to determine Ka. […] Meanwhile, the changes of Ka after adding ethanol are determined in the test, and the Ka values of different cyclodextrins are shown in Table 1.

[6] = phase solubility studies; cited from earlier work
[7] = about 50% cyclodextrin aqueous solution, pure water; cited from earlier work
[8] = aqueous solution; UV spectrum study; cited from earlier work
[9] = cited from earlier work
[10] = cyclodextrin concentration 31 %

CC(=O)O[C@H]1C(=O)[C@@]2(C)[C@H]([C@H](OC(=O)c3ccccc3)[C@]3(O)C[C@H](OC(=O)[C@H](O)[C@@H](NC(=O)c4ccccc4)c4ccccc4)C(C)=C1C3(C)C)[C@]1(OC(C)=O)CO[C@@H]1C[C@@H]2O [Paclitaxel, (2S,5R,7S,10R,13S)-10,20-bi(acetoxy)-2-benzoyl-oxy-1,7-dihydroxy-9-oxo-5,20-epoxy taxanes-11-ene-13-radical(3S)-3-benzoyl amino-3-phenyl-D-lactic acid ester]
solubility at 72 h ([1]; thermodynamic from solid, pure water, cyclodextrin concentration 0 %): 0.589 µg/mL (≈ 0.69 µM)
Content ([2]; 0 day): 99.748%
Content ([2]; High humidity, 25° C., RH 90±5%, 5 days): 89.336%
Content ([2]; High temperature, 60° C., 5 days): 91.569%
Content ([2]; Light, 4500±500 LX, 5 days): 90.346%
Content in aqueous solution ([3]; 0 h): 99.745%
Content in aqueous solution ([3]; 2 h): 99.700%
Content in aqueous solution ([3]; 4 h): 99.577%
Content in aqueous solution ([3]; 6 h): 99.648%
Content in aqueous solution ([3]; 8 h): 99.608%
anti-tumor rate (S180 cells): 82.77%
effect on animal body weight [4]: reduce the animal body weight
weight loss of animals compared with the inclusion group [4]: greater

OC[C@H]1O[C@@H]2O[C@H]3[C@H](O)[C@@H](O)[C@@H](O[C@H]4[C@H](O)[C@@H](O)[C@@H](O[C@H]5[C@H](O)[C@@H](O)[C@@H](O[C@H]6[C@H](O)[C@@H](O)[C@@H](O[C@H]7[C@H](O)[C@@H](O)[C@@H](O[C@H]8[C@H](O)[C@@H](O)[C@@H](O[C@H]1[C@H](O)[C@H]2O)O[C@@H]8CO)O[C@@H]7CO)O[C@@H]6CO)O[C@@H]5CO)O[C@@H]4CO)O[C@@H]3CO [β-cyclodextrin]
first-level apparent stability constant Ka of cyclodextrin/paclitaxel ([5]; H2O): 413 M⁻¹

OC[C@H]1O[C@@H]2O[C@H]3[C@H](O)[C@@H](O)[C@@H](O[C@H]4[C@H](O)[C@@H](O)[C@@H](O[C@H]5[C@H](O)[C@@H](O)[C@@H](O[C@H]6[C@H](O)[C@@H](O)[C@@H](O[C@H]7[C@H](O)[C@@H](O)[C@@H](O[C@H]8[C@H](O)[C@@H](O)[C@@H](O[C@H]9[C@H](O)[C@@H](O)[C@@H](O[C@H]1[C@H](O)[C@H]2O)O[C@@H]9CO)O[C@@H]8CO)O[C@@H]7CO)O[C@@H]6CO)O[C@@H]5CO)O[C@@H]4CO)O[C@@H]3CO [γ-cyclodextrin]
dual-inclusion constant with paclitaxel [6]: 785 M⁻¹

hydroxypropyl-sulfobutyl-β-cyclodextrin
Paclitaxel solubility in cyclodextrin solution [1, 10]: 11.177 mg/mL
first-level apparent stability constant Ka of cyclodextrin/paclitaxel ([5]; 60% EtOH): 19722 M⁻¹
first-level apparent stability constant Ka of cyclodextrin/paclitaxel ([5]; H2O): 14121 M⁻¹

hydroxypropyl-β-cyclodextrin
dual-inclusion constant with paclitaxel [6]: 7965 M^−
paclitaxel solubility [7]: 3.4 mg/mL
inclusion constant [8]: 3030 M⁻¹
first-level apparent stability constant Ka of cyclodextrin/paclitaxel ([5]; 60% EtOH): 4646 M⁻¹
first-level apparent stability constant Ka of cyclodextrin/paclitaxel ([5]; H2O): 1325 M⁻¹

sulfobutyl-β-cyclodextrin
Paclitaxel solubility in cyclodextrin solution ([1]; cyclodextrin concentration 25 %): 9.324 mg/mL
Paclitaxel solubility in cyclodextrin solution [1, 10]: 10.182 mg/mL
water-solubility [9]: > 50 g/100 g H2O
first-level apparent stability constant Ka of cyclodextrin/paclitaxel ([5]; 60% EtOH): 9367 M⁻¹
first-level apparent stability constant Ka of cyclodextrin/paclitaxel ([5]; H2O): 5396 M⁻¹
